The conditions of test [1]: background; compared with a therapy session of up to several hours; cited from earlier work.
The target in test [2] is T1, 5-HT2A receptors (Mus musculus, UniProt P35363). Kind of test: LSD-induced head twitch response in mice, 5-HT2A antagonist given i.v. after LSD. The class given is in vivo, C57BL/6J mice. Set-up: widely used to explore the effect of treatments on 5-HT2A receptors in vivo; from tissue; host or cells: whole living male C57BL/6J mice (behavioural read-out). The settings on record: for head-twitch response (cumulative head-twitches): LSD 0.32 mg/kg i.p., monitored until 40 min after agonist dosing; for Result (LSD Combinations tested, summary): summary of Examples 1-17, antagonist administered after LSD. An excerpt:
(§1) See, Keller and Umbreit, Science, 1956, 124: 723). […] The head-shake response is elicited by a wide variety of known hallucinogens such as LSD, psilocybin, psilocin, N,N-dimethyltryptamine (DMT), and mescaline as well as serotonin-releasing agents and direct 5-HT2 agonists. See, Canal and Morgan, Drug Test Anal., 2012, 4, 556-576 2012. 2,5-dimethoxy-4-iodoamphetamine (DOI) has also been reported to elicit head shakes in rats (see Amt and Hyttel Eur. J. Pharmacol., 1989, 161:45; also see Kennett et al., Br. J. Pharmacol., 1994, 111: 797-802) and head-twitches in mice (see Darmani et al., Pharmacol. Biochem. Behav., 1990, 36: […]), both of which were blocked by administration of the fairly selective 5-HT2A antagonist ketanserin. Later studies have confirmed 5-HT2A receptors are the primary, direct mediators of the response and that the headshake response in rats is essentially the same as head-twitches in mice, at least in regards to similarity in appearance and 5-HT2A receptor dependence. See, Canal and Morgan, Drug Test Anal., 2012, 4, 556-576 2012.
Male C57BL/6J mice (approximately 25 g) was group housed in stock room B20D of the Saretius animal at the University of Reading. […]
(§2) At T=−60 min, C57BL/6J mice were individually housed into transparent observation cages with bedding removed and left to habituate. At T=−2 min, mice were placed into heated cages at 40° C. At T=0 h, groups of 3 mice were dosed intraperitoneally with LSD (0.32 mg/kg). Following dosing, mice were replaced into the heated cages and head-twitch responses continuously scored for 8 min. After 8 min, mice were intravenously dosed via the lateral tail vein with either vehicle 1 (saline) or volinanserin 1 mg/kg in 5 mL/kg dosing volumes. Mice were replaced into the observation cages and head twitch behavior were monitored until 40 min after agonist dosing. Cumulative head-twitch behavior was measured every 2 minutes until 40 minutes after agonist dosing.
At T=−60 min, C57BL/6J mice were individually housed into transparent observation cages with bedding removed and left to habituate. At T=−2 min, mice were placed into heated cages at 40° C. At T=0 h, groups of 3 mice were dosed intraperitoneally with LSD (0.32 mg/kg).

The target in test [3] is T1, 5-HT2A receptors. The test is described as follows: Psilocybin-induced head twitch response in mice, 5-HT2A antagonist given i.v. after psilocybin. It counts as in vivo, C57BL/6J mice. Set-up: widely used to explore the effect of treatments on 5-HT2A receptors in vivo; from tissue; host or cells: whole living male C57BL/6J mice (behavioural read-out). Particulars: for head-twitch response (cumulative head-twitches): psilocybin 2 mg/kg i.p., monitored until 40 min after agonist dosing; for Result (Psilocybin Combinations tested, summary): summary of Examples 1-17.
Description: as §1
Male C57BL/6J mice (approximately 25 g) was group housed in stock room B20D of the Saretius animal at the University of Reading. Animals was maintained under a 12 h light/dark cycle, at 23° C. with humidity controlled
as §2, with “T=−3” for “T=−2”, “psilocybin (2” for “LSD (0.32”, “7” for “8”, “head-twitches were” for “head-twitch behavior was”
as §2, with “At T=−3” for “At T=−2”, “with psilocybin (2” for “with LSD (0.32”, “for 7” for “for 8”, “min. […]” for “min. After 8 min, mice were intravenously dosed via the lateral tail vein with either vehicle 1 (saline) or volinanserin 1 mg/kg in 5 mL/kg dosing volumes.”, “behavior was” for “behavior were”
as §2, with “At T=−3” for “At T=−2”, “with psilocybin (2” for “with LSD (0.32”, “for 7” for “for 8”, “min. […]” for “min. After 8 min, mice were intravenously dosed via the lateral tail vein with either vehicle 1 (saline) or volinanserin 1 mg/kg in 5 mL/kg dosing volumes.”, “behavior was” for “behavior were”
as §2, with “At T=−3” for “At T=−2”, “with psilocybin (2” for “with LSD (0.32”, “for 7” for “for 8”, “min. […]” for “min. After 8 min, mice were intravenously dosed via the lateral tail vein with either vehicle 1 (saline) or volinanserin 1 mg/kg in 5 mL/kg dosing volumes.”, “behavior was” for “behavior were”

Test [4] has as its target T2, 5-HT2A receptors (Rattus norvegicus, UniProt P14842).
T2 construct: has also been reported to elicit head shakes in rats; host or cells: living rats (cited studies)
Particulars: rats; 2,5-dimethoxy-4-iodoamphetamine (DOI); cited from earlier work.

Test [5] addresses T1, 5-HT2A receptors. Details: head-twitches in mice (see Darmani et al., Pharmacol. Biochem. Behav., 1990); host or cells: living mice (cited study). The settings on record: mice; 2,5-dimethoxy-4-iodoamphetamine (DOI); cited from earlier work.
In test [6] the test system is psilocybin induced head twitches in mice. The settings on record: psilocybin 2 mg/kg i.p.; quetiapine 1 mg/kg i.v. after T=7 minutes; cumulative head twitches until 40 minutes. How it is done:
Mice were dosed intraperitoneally with psilocybin (2 mg/kg) and head-twitch responses were continuously scored for 7 minutes. […] Cumulative head-twitch behavior was measured every 2 minutes until 40 minutes after agonist dosing.

The mark [7] stands for this setting: antagonist 1 mg/kg i.v. after 8 min.
[8] abbreviates: antagonist 1 mg/kg i.v. after 7 min.
The mark [9] stands for this setting: antagonist 4 mg/kg i.v. after 7 min.
Setting [10] is: antagonist administered after psilocybin.

Entries after “also recorded” stand apart in the source; their conditions may differ.

T1 sequence (P35363 whole entry): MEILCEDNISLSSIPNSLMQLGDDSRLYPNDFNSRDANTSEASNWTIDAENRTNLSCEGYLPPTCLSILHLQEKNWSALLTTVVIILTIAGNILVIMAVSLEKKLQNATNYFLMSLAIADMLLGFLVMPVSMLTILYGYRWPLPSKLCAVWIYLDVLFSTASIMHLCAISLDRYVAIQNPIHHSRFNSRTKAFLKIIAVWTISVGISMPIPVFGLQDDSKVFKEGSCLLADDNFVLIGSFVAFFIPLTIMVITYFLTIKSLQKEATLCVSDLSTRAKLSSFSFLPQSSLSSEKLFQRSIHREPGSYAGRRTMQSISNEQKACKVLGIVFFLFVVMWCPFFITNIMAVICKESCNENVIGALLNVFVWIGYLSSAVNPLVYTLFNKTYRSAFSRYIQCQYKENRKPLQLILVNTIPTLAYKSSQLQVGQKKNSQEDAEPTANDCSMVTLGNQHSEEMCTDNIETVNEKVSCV
T2 sequence (P14842 whole entry): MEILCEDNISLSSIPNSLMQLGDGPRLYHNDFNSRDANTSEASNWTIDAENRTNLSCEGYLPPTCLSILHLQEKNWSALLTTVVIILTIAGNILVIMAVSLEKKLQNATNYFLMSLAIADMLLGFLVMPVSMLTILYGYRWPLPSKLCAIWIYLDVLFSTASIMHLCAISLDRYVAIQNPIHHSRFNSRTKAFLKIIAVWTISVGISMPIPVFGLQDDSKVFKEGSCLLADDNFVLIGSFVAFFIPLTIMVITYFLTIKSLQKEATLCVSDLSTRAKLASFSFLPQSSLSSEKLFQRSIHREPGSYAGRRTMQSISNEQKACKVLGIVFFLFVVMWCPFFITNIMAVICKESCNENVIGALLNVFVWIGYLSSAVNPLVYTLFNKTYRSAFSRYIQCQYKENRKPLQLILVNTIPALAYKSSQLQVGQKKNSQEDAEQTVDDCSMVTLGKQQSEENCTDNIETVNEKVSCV

On to `CCN(CC)C(=O)[C@@H]1C=C2c3cccc4[nH]cc(c34)C[C@H]2N(C)C1` [LSD], for which the duration of effects in test [1] is 12 h.

`O=c1[nH]c2ccccc2n1CCN1CCN(c2cccc(C(F)(F)F)c2)CC1` [flibanserin]: the “head-twitch response (cumulative head-twitches)” value at 5-HT2A receptors [2] (setting [7]), on 5-HT2A receptors [2] (antagonist 4 mg/kg i.v. after 8 min), at 5-HT2A receptors [3] (setting [8]) and at 5-HT2A receptors [3] (setting [9]) was “partially suppressed” throughout. Further, the “Result (LSD Combinations tested, summary)” value is reported as “partial suppression” on 5-HT2A receptors [2] and “Partial suppression of head twitch” at 5-HT2A receptors [2] (listed as Flibanserin). Also, the “Result (Psilocybin Combinations tested, summary)” value is given as “partial suppression” at 5-HT2A receptors [3] (setting [10]) and “Partial suppression of head twitch” at 5-HT2A receptors [3] (antagonist administered after psilocybin, listed as Flibanserin).

Regarding `O=C(c1ccc(F)cc1)C1CCN(CCn2c(=O)[nH]c3ccccc3c2=O)CC1` [ketanserin], the DOI-elicited head shakes result on 5-HT2A receptors [4] was “blocked”. Besides, at 5-HT2A receptors [5], the DOI-elicited head-twitches result is “blocked”. For the same compound, the “head-twitch response (cumulative head-twitches)” value at 5-HT2A receptors [2] (antagonist 2 mg/kg i.v. after 8 min) and at 5-HT2A receptors [3] (antagonist 2 mg/kg i.v. after 7 min) was “completely suppressed” in each case.

`COc1ccc(NC(=O)Nc2ccc(F)cc2F)cc1-c1c(Br)cnn1C` [nelotanserin]: the “head-twitch response (cumulative head-twitches)” value on 5-HT2A receptors [2] (setting [7]) is listed as “partially suppressed”; at 5-HT2A receptors [3] (setting [8]) it was “partially suppressed”; at 5-HT2A receptors [3] (setting [9]), “completely suppressed; also recorded: completed suppressed”. For the same compound, the “Result (LSD Combinations tested, summary)” value is recorded as “partial suppression” on 5-HT2A receptors [2] and “Partial suppression of head twitch” on 5-HT2A receptors [2] (listed as Nelotanserin). The “Result (Psilocybin Combinations tested, summary)” value at 5-HT2A receptors [3] (setting [10]) is given as “partial suppression”; on 5-HT2A receptors [3] (antagonist administered after psilocybin, listed as Nelotanserin) it was “Partial suppression of head twitch,”; at 5-HT2A receptors [3] (at high dose), “full suppression at high dose”.

Consider `N#Cc1c[nH]c2c(C(=O)N3CCN(CCc4ccc(F)cc4)CC3)cccc12` [pruvanserin], for which the “head-twitch response (cumulative head-twitches)” value at 5-HT2A receptors [2] (setting [7]) and on 5-HT2A receptors [3] (setting [8]) was “completely suppressed” each time. In addition, the “Result (LSD Combinations tested, summary)” value is reported as “full suppression” on 5-HT2A receptors [2] and “Full suppression of head twitch” on 5-HT2A receptors [2] (listed as Pruvanserin). Moreover, the “Result (Psilocybin Combinations tested, summary)” value on 5-HT2A receptors [3] (setting [10]) is listed as “full ending”; on 5-HT2A receptors [3] (antagonist administered after psilocybin, listed as Pruvanserin) it was “Full suppression of head twitch”.

Consider `OCCOCCN1CCN(C2=Nc3ccccc3Sc3ccccc32)CC1` [quetiapine], for which the head-twitch response entry in test [6] is “completely suppressed”.

Regarding `Cc1nc2sccn2c(=O)c1CCN1CCC(=C(c2ccc(F)cc2)c2ccc(F)cc2)CC1` [ritanserin], the “head-twitch response (cumulative head-twitches)” value on 5-HT2A receptors [2] (setting [7]) is on record as “partially suppressed”; at 5-HT2A receptors [3] (setting [8]) it was “completely suppressed”. The “Result (LSD Combinations tested, summary)” value on 5-HT2A receptors [2] was “full suppression”; on 5-HT2A receptors [2] (listed as Ritanserin) it was “Full suppression of head twitch”. Also, the “Result (Psilocybin Combinations tested, summary)” value is given as “full ending” at 5-HT2A receptors [3] (setting [10]) and “Full suppression of head twitch” at 5-HT2A receptors [3] (antagonist administered after psilocybin, listed as Ritanserin).

For `COc1cccc([C@H](O)C2CCN(CCc3ccc(F)cc3)CC2)c1OC` [volinanserin], the “head-twitch response (cumulative head-twitches)” value on 5-HT2A receptors [2] (antagonist 1 mg/kg i.v. after 5 min), on 5-HT2A receptors [2] (setting [7]), at 5-HT2A receptors [2] (antagonist 1 mg/kg i.v. after 10 min) and on 5-HT2A receptors [3] (setting [8]) was “completely suppressed” throughout. Also, the “Result (LSD Combinations tested, summary)” value on 5-HT2A receptors [2] is recorded as “full suppression”. The “Result (Psilocybin Combinations tested, summary)” value is “full ending” at 5-HT2A receptors [3] (setting [10]) and “Full suppression of head twitch” at 5-HT2A receptors [3] (antagonist administered after psilocybin, listed as Volinanserin).

The record behind these values is US20240000795A1, “METHODS AND COMPOSITIONS RELATING TO CONTROLLING PSYCHEDELIC EFFECTS WITH SEROTONIN RECEPTOR MODULATORS” (Terran Biosciences Inc., priority 2022, published 2024).
